Data: the NIST ThermoML archive (doi:10.1021/je9005823)
± gives the expanded uncertainty stated by the source.

What was measured:
[1] = refractive index (Na D-line) (dimensionless); xn = mol fraction of the nth substance listed; settings: 298.15 K, 101 kPa, Liquid
[2] = xn = mol fraction of the nth substance listed; settings: 298.15 K, 101 kPa, Liquid; for viscosity: Capillary tube (Ostwald / Ubbelohde) method
[3] = refractive index (Na D-line) (dimensionless); settings: 298.15 K; 101.33 kPa; Liquid
[4] = 298.15 K, 101 kPa, Liquid; for viscosity: Capillary tube (Ostwald / Ubbelohde) method

CCCCCC(C)O (configuration not stated) [2-heptanol] + CC(=O)c1ccccc1
Settings	mass density, [2] [kg/m3]	refractive index, [1]	viscosity, [2] [mPa·s]
x2 = 0	813.33 ± 0.55	1.4188 ± 0.0007	5.33 ± 0.039
x2 = 0.0913	829.12 ± 0.53	1.4489 ± 0.0007	4.282 ± 0.032
x2 = 0.1631	841.87 ± 0.51	1.4748 ± 0.0007	3.572 ± 0.027
x2 = 0.2637	860.39 ± 0.49	1.5079 ± 0.0007	2.763 ± 0.021
x2 = 0.3425	875.43 ± 0.47	1.5298 ± 0.0007	2.296 ± 0.017
x2 = 0.4374	894.2 ± 0.45	1.5535 ± 0.0007	1.908 ± 0.015
x2 = 0.5387	915.07 ± 0.42	–	1.662 ± 0.013
x2 = 0.6446	937.92 ± 0.4	–	1.55 ± 0.012
x2 = 0.7571	963.35 ± 0.37	–	1.548 ± 0.012
x2 = 0.8733	991.14 ± 0.34	–	1.606 ± 0.012
x2 = 0.9542	1011.38 ± 0.35	1.5486 ± 0.0007	1.651 ± 0.013

CC(=O)c1ccccc1 [acetophenone] + CC(C)O
Settings	mass density, [2] [kg/m3]	refractive index, [1]	viscosity, [2] [mPa·s]
x1 = 0.0892	813.69 ± 0.55	1.3971 ± 0.0007	1.678 ± 0.013
x1 = 0.1658	839.2 ± 0.52	1.4181 ± 0.0007	1.503 ± 0.012
x1 = 0.2517	865.44 ± 0.49	1.4393 ± 0.0007	1.399 ± 0.011
x1 = 0.3432	890.91 ± 0.46	1.4601 ± 0.0007	1.354 ± 0.01
x1 = 0.4297	913.04 ± 0.43	1.4775 ± 0.0007	1.352 ± 0.01
x1 = 0.5345	937.56 ± 0.4	1.4953 ± 0.0007	1.367 ± 0.011
x1 = 0.6466	961.31 ± 0.37	1.5099 ± 0.0007	1.421 ± 0.011
x1 = 0.7561	982.35 ± 0.35	1.5195 ± 0.0007	1.484 ± 0.011
x1 = 0.8635	1001.26 ± 0.33	1.5255 ± 0.0007	1.556 ± 0.012
x1 = 0.9568	1016.5 ± 0.36	1.5276 ± 0.0007	1.626 ± 0.013
x1 = 1	1023.3 ± 0.37	1.5308 ± 0.0007	1.678 ± 0.013

CCC(C)O (configuration not stated) [butan-2-ol] + CC(=O)c1ccccc1
x2 = 0
Settings	mass density [kg/m3]	refractive index	viscosity [mPa·s]
[1]	–	1.3946 ± 0.0007	–
[2]	802.56 ± 0.56	–	3.132 ± 0.024

CCCCC(C)O (configuration not stated) [2-hexanol]
Settings	mass density [kg/m3]	refractive index	viscosity [mPa·s]
[3]	–	1.4116 ± 0.0007	–
[4]	810.14 ± 0.55	–	4.1 ± 0.031

CCCCC(C)O (configuration not stated) [2-hexanol] + CC(=O)c1ccccc1
Settings	mass density, [2] [kg/m3]	refractive index, [1]	viscosity, [2] [mPa·s]
x2 = 0	810.14 ± 0.55	1.4116 ± 0.0007	4.1 ± 0.031
x2 = 0.0902	827.84 ± 0.53	1.4485 ± 0.0007	3.193 ± 0.024
x2 = 0.1678	843.27 ± 0.51	1.4782 ± 0.0007	2.658 ± 0.02
x2 = 0.2536	860.63 ± 0.49	1.5037 ± 0.0007	2.16 ± 0.017
x2 = 0.34	878.39 ± 0.47	1.5247 ± 0.0007	1.802 ± 0.014
x2 = 0.4382	898.86 ± 0.44	1.5425 ± 0.0007	1.506 ± 0.012
x2 = 0.5395	920.38 ± 0.42	–	1.344 ± 0.01
x2 = 0.6451	943.23 ± 0.39	–	1.273 ± 0.0099
x2 = 0.75	966.34 ± 0.36	–	1.313 ± 0.01
x2 = 0.8628	991.72 ± 0.34	1.5505 ± 0.0007	1.399 ± 0.011
x2 = 0.9511	1011.93 ± 0.35	1.5394 ± 0.0007	1.556 ± 0.012

CC(=O)c1ccccc1 [acetophenone]
Settings	mass density [kg/m3]	refractive index	viscosity [mPa·s]
[3]	–	1.5308 ± 0.0007	–
[4]	1023.3 ± 0.37	–	1.678 ± 0.013

CCCC(C)O (configuration not stated) [pentan-2-ol]
Settings	mass density [kg/m3]	refractive index	viscosity [mPa·s]
[3]	–	1.4045 ± 0.0007	–
[4]	805.24 ± 0.56	–	3.478 ± 0.026

CC(=O)c1ccccc1 [acetophenone] + CCCCC(C)O
x1 = 1
Settings	mass density [kg/m3]	refractive index	viscosity [mPa·s]
[1]	–	1.5308 ± 0.0007	–
[2]	1023.3 ± 0.37	–	1.678 ± 0.013

CC(C)O [propan-2-ol]
Settings	mass density [kg/m3]	refractive index	viscosity [mPa·s]
[3]	–	1.3745 ± 0.0007	–
[4]	780.98 ± 0.59	–	2.044 ± 0.016

CCCC(C)O (configuration not stated) [pentan-2-ol] + CC(=O)c1ccccc1
x2 = 0
Settings	mass density [kg/m3]	refractive index	viscosity [mPa·s]
[1]	–	1.4045 ± 0.0007	–
[2]	805.24 ± 0.56	–	3.478 ± 0.026

CC(=O)c1ccccc1 [acetophenone] + CCCC(C)O
Settings	mass density, [2] [kg/m3]	refractive index, [1]	viscosity, [2] [mPa·s]
x1 = 0.0917	826.19 ± 0.53	1.4627 ± 0.0007	2.767 ± 0.021
x1 = 0.1629	842.36 ± 0.51	1.4972 ± 0.0007	2.314 ± 0.018
x1 = 0.2502	862.04 ± 0.49	1.5257 ± 0.0007	1.875 ± 0.014
x1 = 0.3416	882.41 ± 0.46	1.5487 ± 0.0007	1.626 ± 0.013
x1 = 0.4371	903.49 ± 0.44	–	1.502 ± 0.012
x1 = 0.5387	925.71 ± 0.41	–	1.489 ± 0.011
x1 = 0.6442	948.51 ± 0.39	–	1.534 ± 0.012
x1 = 0.7547	972.08 ± 0.36	–	1.605 ± 0.012
x1 = 0.8716	996.7 ± 0.33	1.547 ± 0.0007	1.658 ± 0.013
x1 = 0.949	1012.77 ± 0.35	1.539 ± 0.0007	1.669 ± 0.013
x1 = 1	1023.3 ± 0.37	1.5308 ± 0.0007	1.678 ± 0.013

CC(C)O [propan-2-ol] + CC(=O)c1ccccc1
x2 = 0
Settings	mass density [kg/m3]	refractive index	viscosity [mPa·s]
[1]	–	1.3745 ± 0.0007	–
[2]	780.98 ± 0.59	–	2.044 ± 0.016

CC(=O)c1ccccc1 [acetophenone] + CCCCCC(C)O
x1 = 1
Settings	mass density [kg/m3]	refractive index	viscosity [mPa·s]
[1]	–	1.5308 ± 0.0007	–
[2]	1023.3 ± 0.37	–	1.678 ± 0.013

CCCCCC(C)O (configuration not stated) [2-heptanol]
Settings	mass density [kg/m3]	refractive index	viscosity [mPa·s]
[3]	–	1.4188 ± 0.0007	–
[4]	813.33 ± 0.55	–	5.33 ± 0.039

CCC(C)O (configuration not stated) [butan-2-ol]
Settings	mass density [kg/m3]	refractive index	viscosity [mPa·s]
[3]	–	1.3946 ± 0.0007	–
[4]	802.56 ± 0.56	–	3.132 ± 0.024

CC(=O)c1ccccc1 [acetophenone] + CCC(C)O
Settings	mass density, [2] [kg/m3]	refractive index, [1]	viscosity, [2] [mPa·s]
x1 = 0.1031	830.43 ± 0.53	1.4255 ± 0.0007	2.345 ± 0.018
x1 = 0.1635	846.12 ± 0.51	1.4443 ± 0.0007	2.009 ± 0.015
x1 = 0.2517	868.13 ± 0.48	1.4669 ± 0.0007	1.705 ± 0.013
x1 = 0.3422	889.8 ± 0.46	1.4877 ± 0.0007	1.544 ± 0.012
x1 = 0.4361	911.31 ± 0.43	1.5044 ± 0.0007	1.461 ± 0.011
x1 = 0.533	932.56 ± 0.4	1.5189 ± 0.0007	1.46 ± 0.011
x1 = 0.6461	956.27 ± 0.38	1.5314 ± 0.0007	1.506 ± 0.012
x1 = 0.7517	977.34 ± 0.35	1.5367 ± 0.0007	1.562 ± 0.012
x1 = 0.8675	999.34 ± 0.33	1.5351 ± 0.0007	1.617 ± 0.013
x1 = 0.9462	1013.72 ± 0.35	1.5336 ± 0.0007	1.65 ± 0.013
x1 = 1	1023.3 ± 0.37	1.5308 ± 0.0007	1.678 ± 0.013
